In test [1] the test system is Jurkat human acute T cell leukemia cells. The test is described as follows: Jurkat IL-2 release assay. It is filed as cell-based. Conditions: IL-2 release from Jurkat cells stimulated with anti-CD3 and anti-CD28, 48 hours, ELISA. On the procedure:
Inhibition of cellular ITK was assessed by measuring release of IL-2 following stimulation with anti-CD3 and anti-CD28 antibodies. Individual wells of 96 well tissue culture plates were coated with 50 μL of 10 μg/mL anti-CD3 (OKT3, eBiosciences) for 2 hours at 37° C. Jurkat human acute T cell leukemia cells (ATCC) were plated in 96-well plates at a final concentration of 9.2×10e5 cells/mL in complete media (RPMI, 10% FBS, 1.5 g/L sodium bicarbonate, 10 mM Hepes, 1 mM sodium pyruvate, 4.5 g/L glucose) and pre-treated with compound curves for 30 minutes at 37° C., 5% CO2. Pre-treated cells plus compounds were transferred to washed anti-CD3 coated plates. Soluble anti-CD28 (CD28.2 eBiosciences) was added to each well at a final concentration of 1 μg/mL. The cells were placed in a humidified 37° C. incubator with 5% CO2 for 48 hours and IL-2 release was measured using a commercial ELISA (BD Bioscience catalog #555190). Controls included unstimulated cells and vehicle alone. EC50 values (50% IL-2 release in the presence of compound as compared to vehicle treated controls) were calculated from dose response compound curves using GraphPad Prism Software.
A general note: In an ELISA, binding on a coated surface is turned into a signal by an enzyme label.

In the next test the test system is Human PBMCs. The test is described as follows: CD3/CD28 mediated PBMC proliferation assay. It is filed as cell-based. Conditions: proliferation of human PBMCs stimulated with anti-CD3 and anti-CD28, 72 hours, Cell Titer-Glo. On the procedure: Inhibition of cellular ITK was assessed by measuring proliferation of PBMCs following stimulation with anti-CD3 and anti-CD28 antibodies. Individual wells of 96 well tissue culture plates were coated with 50 μL of 5 μg/mL anti-CD3 (OKT3, eBiosciences) for 2 hours at 37° C. Human PBMCs (Stemcell Technologies catalog #70025.3) were plated in 96-well plates at a final concentration of 9.2×10e5 cells/mL in complete media (RPMI, 10% heat inactivated FBS, 55 uM β-mercaptoethanol) and pre-treated with compound curves for 30 minutes at 37° C., 5% CO2. Pre-treated cells plus compounds were transferred to washed anti-CD3 coated plates. Soluble anti-CD28 (CD28.2 eBiosciences) was added to each well at a final concentration of 2 μg/mL. The cells were placed in a humidified 37° C. incubator with 5% CO2 for 72 hours and metabolic viability was measured by quantification of ATP levels with Cell Titer-Glo (Promega catalog # G9242). Controls included unstimulated cells and vehicle alone. EC50 values (50% proliferation in the presence of compound as compared to vehicle treated controls) were calculated from dose response compound curves using GraphPad Prism Software.
In general terms: In ATP-based viability assays light output follows the ATP content of the culture.

Another test has as its target RLK/TXK (Homo sapiens (Human), UniProt P42681). Briefly: RLK/TXK kinase inhibition assay. In kind it is biochemical. Conditions: micro-fluidic detection, 3 hours at 25° C. On the procedure: (§1) The in vitro kinase assays were performed at Nanosyn utilizing micro-fluidic detection technology. The test compounds were serially pre-diluted in DMSO and added, by the acoustic dispensing (Labcyte® 550), directly to 384well assay plates into 10 uL of a buffer with enzyme comprising: 100 mM HEPES, pH7.5, 5 mM MgCl2, 0.1% bovine serum albumin, 1 mM DTT, 0.01% Triton X-100 and the enzyme. Final DMSO concentration was maintained at 1% in all samples, including the controls. The reactions were initiated by addition of ATP (to the specified concentration) and the fluorescently labeled peptide substrate to a final concentration of 1 uM, and incubated for 3 hours at 25° C. Following incubation, the reactions were quenched by addition of 40 μL of termination buffer (100 mM HEPES, pH7.5, 0.01% Triton X-100, 50 mM EDTA). Terminated plates were analyzed using Caliper LabChip® 3000 microfluidic electrophoresis instrument (Caliper Life Sciences/Perkin Elmer). The enzymatic modification of the peptide substrate (phosphorylation) results in a change of net charge enabling electrophoretic separation of product from substrate. As substrate and product are separated by electrophoresis, two peaks of fluorescence are observed. Change in the relative fluorescence intensity of the substrate and product peaks was the parameter measured, reflecting enzyme activity. In the presence of inhibitor, the ratio between product and substrate is altered: signal of the product decreases, while the signal of the substrate increases. Activity in each test sample was determined as the product to sum ratio (PSR): P/(S+P), where P is the peak height of the product and S is the peak height of the […]. For each compound, enzyme activity was measured at 12 concentrations spaced by 3× dilution intervals. Negative control samples (0%-inhibition in the absence of inhibitor, DMSO only) and positive control samples (100%-inhibition, in the absence of enzyme or in the presence of control inhibitor) were assembled in replicates of four and were used to calculate %-inhibition values in the presence of compounds. Percent inhibition (Pinh) was determined using the following equation: Pinh=(PSR0%−PSRinh)/(PSR0%−PSR100%)*100, where PSRinh is the product sum ratio in the presence of inhibitor, PSR0% is the product sum ratio in the absence of inhibitor and PSR100% is the product sum ratio in 100%-inhibition control samples. To determine IC50 values, the inhibition curves (Pinh versus inhibitor concentration) were fitted by 4 parameter sigmoid dose-response model using XLfit software (IDBS).

The next test concerns the target ITK (Homo sapiens (Human), UniProt Q08881). Briefly: ITK kinase inhibition assay. It is filed as biochemical. Conditions: micro-fluidic detection, 3 hours at 25° C. On the procedure: as §1, with “384 well” for “384well”, “(PSR):P/(S+P),” for “(PSR): P/(S+P),”

Structures are written as SMILES.

RLK/TXK, sequence (P42681 whole entry): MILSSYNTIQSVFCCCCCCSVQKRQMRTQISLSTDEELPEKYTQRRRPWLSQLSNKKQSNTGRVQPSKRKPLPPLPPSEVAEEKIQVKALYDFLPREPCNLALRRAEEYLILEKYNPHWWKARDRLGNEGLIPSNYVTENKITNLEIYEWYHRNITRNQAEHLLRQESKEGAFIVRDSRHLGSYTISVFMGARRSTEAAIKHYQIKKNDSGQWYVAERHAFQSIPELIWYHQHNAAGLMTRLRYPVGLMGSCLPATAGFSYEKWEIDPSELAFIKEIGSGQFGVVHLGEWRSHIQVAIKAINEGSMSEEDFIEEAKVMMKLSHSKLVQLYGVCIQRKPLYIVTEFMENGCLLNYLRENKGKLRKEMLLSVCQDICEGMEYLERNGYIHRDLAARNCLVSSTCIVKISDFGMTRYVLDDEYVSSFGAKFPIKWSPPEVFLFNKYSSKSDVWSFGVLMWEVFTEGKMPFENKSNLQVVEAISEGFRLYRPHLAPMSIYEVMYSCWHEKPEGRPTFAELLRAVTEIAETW
ITK, sequence (Q08881 whole entry): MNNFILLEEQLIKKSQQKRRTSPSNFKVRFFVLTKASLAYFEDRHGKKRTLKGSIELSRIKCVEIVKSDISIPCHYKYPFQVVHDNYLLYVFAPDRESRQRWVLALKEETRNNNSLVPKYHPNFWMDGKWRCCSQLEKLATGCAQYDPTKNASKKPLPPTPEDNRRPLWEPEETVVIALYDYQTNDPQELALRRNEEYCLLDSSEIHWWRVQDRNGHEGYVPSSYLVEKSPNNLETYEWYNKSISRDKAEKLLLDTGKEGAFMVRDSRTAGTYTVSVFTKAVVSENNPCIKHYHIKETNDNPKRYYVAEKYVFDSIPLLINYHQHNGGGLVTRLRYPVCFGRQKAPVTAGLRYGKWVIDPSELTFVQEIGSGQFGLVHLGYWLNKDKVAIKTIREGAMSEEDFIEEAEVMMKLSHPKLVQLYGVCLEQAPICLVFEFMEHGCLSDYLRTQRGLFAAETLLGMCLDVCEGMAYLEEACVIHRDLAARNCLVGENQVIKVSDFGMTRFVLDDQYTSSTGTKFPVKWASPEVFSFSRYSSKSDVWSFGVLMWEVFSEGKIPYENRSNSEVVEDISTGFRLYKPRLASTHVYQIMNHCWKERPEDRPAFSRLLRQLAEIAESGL

`C=CC(=O)Nc1cccc(-n2c(NC(=O)c3ccc(C#N)cc3)nc3cc(CN[C@@H](C)C(C)(C)C)ccc32)c1` [Compound 11]: the EC50 in test [1] was over 100 nM; with Human PBMCs it was 10 to 100 nM; on RLK/TXK, under 10 nM; at ITK it was under 10 nM.
For `C=CC(=O)Nc1cccc(-n2c(NC(=O)c3ccc(C(F)F)s3)nc3cc(CN4CCCC4)ccc32)c1` [Compound 32], the concentration for a half-maximal effect (EC50) (in test [1]; in the test with Human PBMCs) was under 10 nM in each case.
Consider `C=CC(=O)Nc1cccc(-n2c(NC(=O)c3ccc(C(F)F)s3)nc3cc(CN[C@H](C)C(C)(C)C)ccc32)c1` [Compound 30], for which the EC50 in test [1] was 10 to 100 nM; with Human PBMCs it was under 10 nM.
In the case of `C=CC(=O)Nc1cccc(-n2c(NC(=O)c3ccc(C(F)F)s3)nc3cc(CNCC(C)(C)C)ccc32)c1` [Compound 23], the EC50 (in test [1]; with Human PBMCs) was under 10 nM in each case.
Take `C=CC(=O)N[C@H]1CCC[C@@H](n2c(NC(=O)c3ccc(C(F)F)s3)nc3cc(CN[C@@H](C)C(C)(C)C)ccc32)C1` [Compound 68]: the EC50 in the test on Human PBMCs, on RLK/TXK and at ITK was under 10 nM throughout.
Take `C=CC(=O)Nc1cccc(-n2c(NC(=O)c3cccc(Cl)c3)nc3cc(CN[C@@H](C)C(C)(C)C)ccc32)c1` [Compound 15]: the concentration giving a half-maximal response (EC50) (in test [1]; in the test on Human PBMCs) was 10 to 100 nM in each case.
For the compound `C=CC(=O)Nc1cccc(-n2c(NC(=O)c3ccc(OCc4ccccc4)cc3)nc3cc(CN[C@@H](C)C(C)(C)C)ccc32)c1` [Compound 37], the half-maximal effective concentration (EC50) (in test [1]; in the test on Human PBMCs) was over 100 nM in each case.
On to `C=CC(=O)Nc1cccc(-n2c(NC(=O)c3cccs3)nc3cc(CN[C@@H](C)C(C)(C)C)ccc32)c1` [Compound 13], for which the EC50 (in test [1]; with Human PBMCs) was 10 to 100 nM each time.
Turning to `C=CC(=O)N1CCOc2ccc(-n3c(NC(=O)c4ccc(C(F)F)s4)nc4cc(CN[C@@H](C)C(C)(C)C)ccc43)cc21` [Compound 57], the 50% effective concentration (EC50) (in test [1]; in the test on Human PBMCs) was 10 to 100 nM each time.
Take `C=C(F)C(=O)Nc1cccc(-n2c(NC(=O)c3ccc(C(F)F)s3)nc3cc(CN[C@@H](C)C(C)(C)C)ccc32)c1` [Compound 84]: the EC50 (in test [1]; in the test with Human PBMCs) was 10 to 100 nM each time.
Take `C=CC(=O)Nc1cccc(-n2c(NC(=O)c3ccc(C(F)F)s3)nc3cc(CN(C(C)=O)[C@@H](C)C(C)(C)C)ccc32)c1` [Compound 36]: the EC50 (in test [1]; with Human PBMCs) was 10 to 100 nM in each case.
For the compound `C=CC(=O)Nc1cccc(-n2c(NC(=O)c3ccc(C(F)F)s3)nc3cc(CNCC)ccc32)c1` [Compound 40], the EC50 in test [1] was 10 to 100 nM; with Human PBMCs, under 10 nM.
For `C=CC(=O)N[C@H]1CC[C@@H](n2c(NC(=O)c3ccns3)nc3cc(CN[C@@H](C)C(C)(C)C)ccc32)CC1` [Compound 67] the same measures were 10 to 100 nM and over 100 nM.
The like results for `C=CC(=O)Nc1cccc(-n2c(NC(=O)c3ccno3)nc3cc(CN4CCOCC4)ccc32)c1` [Compound 76] were, in that order, under 10 nM and 10 to 100 nM.
The like results for `C=CC(=O)Nc1cccc(-n2c(NC(=O)c3cccc(O)c3)nc3cc(CN[C@@H](C)C(C)(C)C)ccc32)c1` [Compound 26] were, in that order, 10 to 100 nM and over 100 nM.
In the case of `C=CC(=O)Nc1cccc(-n2c(NC(=O)c3ccc(C(F)F)s3)nc3cc(N(C)S(C)(=O)=O)ccc32)c1` [Compound 80], the concentration for a half-maximal effect (EC50) (in test [1]; in the test on Human PBMCs) was 10 to 100 nM in each case.
Take `C=CC(=O)Nc1cccc(-n2c(NC(=O)c3cccc(F)c3)nc3cc(CN[C@@H](C)C(C)(C)C)ccc32)c1` [Compound 7]: the concentration giving a half-maximal response (EC50) (in test [1]; with Human PBMCs) was 10 to 100 nM each time.
On to `C=CC(=O)Nc1ccc(-n2c(NC(=O)c3ccc(C(F)F)s3)nc3cc(CN[C@@H](C)C(C)(C)C)ccc32)cc1` [Compound 4], for which the EC50 in test [1] was 10 to 100 nM; in the test on Human PBMCs, over 100 nM.
The like results for `C=CC(=O)Nc1cccc(-n2c(NC(=O)c3ccc(OC)cc3)nc3cc(CN[C@@H](C)C(C)(C)C)ccc32)c1` [Compound 24] were, in that order, over 100 nM and over 100 nM.
Turning to `C[C@H](NCc1ccc2c(c1)nc(NC(=O)c1ccc(C(F)F)s1)n2-c1cccc(NC(=O)/C=C/CN(C)C)c1)C(C)(C)C` [Compound 78], the EC50 in test [1] was 10 to 100 nM; in the test with Human PBMCs, over 100 nM.
For `C=CC(=O)Nc1cccc(-n2c(NC(=O)c3cncnc3)nc3cc(CN[C@@H](C)C(C)(C)C)ccc32)c1` [Compound 41] the same measures were under 10 nM and 10 to 100 nM.
With `C=CC(=O)Nc1cccc(-n2c(NC(=O)c3ccc(C(F)F)s3)nc3cc(CN4CCN(CCO)CC4)ccc32)c1` [Compound 59], the EC50 (in test [1]; with Human PBMCs) was under 10 nM in each case.
Turning to `C=CC(=O)Nc1cccc(-n2c(NC(=O)c3ccc(C(F)F)s3)nc3cc(CN[C@H]4CC[C@@H](O)CC4)ccc32)c1` [Compound 35], the figures for the EC50 (in test [1]; with Human PBMCs) were 10 to 100 nM and under 10 nM, respectively.

The term EC50 denotes the midpoint of the concentration-response curve.

(Values after patent publication US10562893B2, “Benzimidazoles derivatives as Tec kinases family inhibitors” (GB005, Inc., priority 2015, dated 2020).)
